Measurements published in PMC4755933 (Journal of medicinal chemistry, 2015).

Tests used:
bromodomain of TRIM24 = molecular target: T1, bromodomain of TRIM24 (Homo sapiens, UniProt O15164); experiment: AlphaScreen biochemical bromodomain-H3K23; assay type: binding; conditions: from TRIM24 IC50
T1 sequence (O15164 899-1004 limits assumed): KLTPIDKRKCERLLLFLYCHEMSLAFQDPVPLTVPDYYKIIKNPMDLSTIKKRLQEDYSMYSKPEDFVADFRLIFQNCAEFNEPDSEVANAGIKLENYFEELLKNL

TRIM24(PHD-bromo) = molecular target: T2, TRIM24(PHD-bromo) (Homo sapiens, UniProt O15164); conditions: TRIM24 AlphaLisa assay in HeLa cells, in words
T2 sequence (O15164 824-1006 limits assumed): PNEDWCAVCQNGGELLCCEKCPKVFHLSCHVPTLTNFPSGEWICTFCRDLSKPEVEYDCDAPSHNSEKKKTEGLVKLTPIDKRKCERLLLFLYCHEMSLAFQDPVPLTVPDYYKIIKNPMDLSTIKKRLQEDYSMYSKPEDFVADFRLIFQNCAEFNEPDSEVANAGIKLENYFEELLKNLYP

[1] = CACO-2 permeability assay
panel of 32 bromodomains = conditions: 1 μM concentration

| SMILES | ligand efficiency (LE) (bromodomain of TRIM24) | also measured |
| --- | --- | --- |
| Cc1nc(-c2ccc3c(c2)CC(=O)N3C)cs1 [Compound 1] | 0.41 |  |
| Cn1c(=O)n(C)c2cc(NS(=O)(=O)c3ccc(C4CCCCC4)cc3)ccc21 [Compound 5e, 4-cyclohexyl-N-(1,3-dimethyl-2-oxo-2,3-dihydro-1H-1,3-benzodiazol-5-yl)benzene-1-sulfonamide] | 0.28 |  |
| COc1ccc(Oc2cc3c(cc2NS(=O)(=O)c2ccccc2)n(C)c(=O)n3C)cc1 [Compound 5g] | 0.26 |  |
| Cn1cnc(S(=O)(=O)Nc2cc3c(cc2Oc2ccc(OCc4ccccc4)cc2)n(C)c(=O)n3C)c1 [Compound 6, N-{6-[4-(benzyloxy)phenoxy]-1,3-dimethyl-2-oxo-2,3-dihydro-1H-1,3-benzodiazol-5-yl}-1-methyl-1H-imidazole-4-sulfonamide] |  | cellular activity (TRIM24(PHD-bromo)): no cellular activity |
| CC(C)COc1cccc(Oc2ccc3c(c2)n(C)c(=O)n3C)c1 [Compound 7j, 1,3-dimethyl-5-[3-(2-methylpropoxy)phenoxy]-2,3-dihydro-1H-1,3-benzodiazol-2-one] |  | cellular activity (TRIM24(PHD-bromo)): no cellular activity |
| CCCOc1cc(OCCCCN(C)C)cc(Oc2cc3c(cc2NS(=O)(=O)c2ccc(OC)c(OC)c2)n(C)c(=O)n3C)c1 [Compound 8i, N-(6-{3-[4-(dimethylamino)butoxy]-5-propoxyphenoxy}-1,3-dimethyl-2-oxo-2,3-dihydro-1H-1,3-benzodiazol-5-yl)-3,4-dimethoxybenzene-1-sulfonamide] |  | interactions against 26 other bromodomains (panel of 32 bromodomains): No interactions were detected |

Further lines, with some results ahead:

| ligand efficiency (LE) (bromodomain of TRIM24) | SMILES | also measured |
| --- | --- | --- |
| 0.23 | COc1ccc(S(=O)(=O)Nc2cc3c(cc2Oc2cccc(OCc4ccccc4)c2)n(C)c(=O)n3C)cc1OC [Compound 7b, N-{6-[3-(benzyloxy)phenoxy]-1,3-dimethyl-2-oxo-2,3-dihydro-1H-1,3-benzodiazol-5-yl}-3,4-dimethoxybenzene-1-sulfonamide] | CACO-2 flux from the apical to basolateral side (Papp) [1]: 21 Papp×10^−6 cm·s^−1 |
| 0.27 | CCCOc1cccc(Oc2cc3c(cc2NS(=O)(=O)c2ccc(OC)c(OC)c2)n(C)c(=O)n3C)c1 [Compound 7e, N-[1,3-dimethyl-2-oxo-6-(3-propoxyphenoxy)-2,3-dihydro-1H-1,3-benzodiazol-5-yl]-3,4-dimethoxybenzene-1-sulfonamide] |  |
